The results in this text go back to patent US20250115600A1, “COVALENT MODIFIERS OF AKT1 AND USES THEREOF” (Terremoto Biosciences, Inc., priority 2022, published 2025).

SMILES strings stand for the structures. pIC50: −log10 of the molar value.

Holding throughout (assay): Live cell target engagement (NanoBRET) in HEK293 cells
What all share (assay type): cell-based

One assay addresses AKT1 E17K (Homo sapiens (Human), UniProt P31749, E17K). The following applies: for pIC50: HEK293, 2 hours at 37° C.
For the next assay, the target named is AKT1 WT (Homo sapiens (Human), UniProt P31749). The following applies: HEK293, 2 hours at 37° C.
Chain of AKT1 WT (P31749 whole entry): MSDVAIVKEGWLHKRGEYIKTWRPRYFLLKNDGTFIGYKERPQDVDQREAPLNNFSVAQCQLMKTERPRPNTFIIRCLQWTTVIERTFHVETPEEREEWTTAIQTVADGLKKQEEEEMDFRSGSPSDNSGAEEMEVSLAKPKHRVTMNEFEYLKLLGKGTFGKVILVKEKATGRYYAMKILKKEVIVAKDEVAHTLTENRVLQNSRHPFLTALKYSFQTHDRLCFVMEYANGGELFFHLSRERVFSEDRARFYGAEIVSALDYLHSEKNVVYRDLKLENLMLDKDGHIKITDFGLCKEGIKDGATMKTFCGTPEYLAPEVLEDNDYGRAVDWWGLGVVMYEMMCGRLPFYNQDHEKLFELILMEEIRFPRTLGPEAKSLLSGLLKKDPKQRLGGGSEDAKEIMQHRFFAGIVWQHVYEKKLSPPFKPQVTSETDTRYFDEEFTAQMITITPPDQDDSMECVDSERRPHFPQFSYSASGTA
The target of a further assay is AKT2 (Homo sapiens (Human), UniProt P31751). The settings on record: HEK293, 2 hours at 37° C.
Chain of AKT2 (P31751 whole entry): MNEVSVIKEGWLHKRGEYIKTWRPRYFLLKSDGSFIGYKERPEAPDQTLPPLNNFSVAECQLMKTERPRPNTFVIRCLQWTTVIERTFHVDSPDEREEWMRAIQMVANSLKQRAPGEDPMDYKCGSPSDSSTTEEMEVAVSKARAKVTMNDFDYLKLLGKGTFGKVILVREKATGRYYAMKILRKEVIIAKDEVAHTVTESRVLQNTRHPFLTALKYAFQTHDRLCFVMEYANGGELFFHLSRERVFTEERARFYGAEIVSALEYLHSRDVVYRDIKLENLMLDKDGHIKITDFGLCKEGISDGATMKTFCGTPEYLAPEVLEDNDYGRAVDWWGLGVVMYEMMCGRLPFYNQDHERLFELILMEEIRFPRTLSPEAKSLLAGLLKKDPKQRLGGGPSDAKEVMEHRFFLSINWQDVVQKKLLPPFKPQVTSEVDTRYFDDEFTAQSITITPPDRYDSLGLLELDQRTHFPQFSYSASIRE

Chain of AKT1 E17K (P31749 whole entry E17K): as the sequence (P31749 whole entry) above, with E17K counted along it

For the compound `Nc1ncccc1-c1nc2ccc(-c3cccc(N4CCOCC4)c3)nc2n1-c1ccc(CNC(=O)c2cc(F)c(O)c(C=O)c2)cc1` [Example 12, N-(4-(2-(2-aminopyridin-3-yl)-5-(3-morpholinophenyl)-3H-imidazo[4,5-b]pyridin-3-yl)benzyl)-3-fluoro-5-formyl-4-hydroxybenzamide], the “AKT1 E17K IC50: Selectivity vs AKT1 WT” value on AKT1 E17K worked out at 1.5. Moreover, the “AKT1 E17K IC50: Selectivity vs AKT2” value on AKT1 E17K is 5.2. The pIC50 is over 7.00 against AKT1 E17K, over 7.00 on AKT1 WT and 6.30 to 7.00 against AKT2.
Turning to `CC(=O)Nc1cccc(-c2ccc3nc(-c4cccnc4N)n(-c4ccc(CNCCc5ccc(C=O)c(O)c5F)cc4)c3n2)c1` [Compound 102, N-{3-[2-(2-aminopyridin-3-yl)-3-[4-({[2-(2-fluoro-4-formyl-3-hydroxyphenyl)ethyl]amino}methyl)phenyl]imidazo[4,5-b]pyridin-5-yl]phenyl}acetamide], the “AKT1 E17K IC50: Selectivity vs AKT1 WT” value on AKT1 E17K came out at 1.1. Moreover, at AKT1 E17K, the “AKT1 E17K IC50: Selectivity vs AKT2” value was determined as 2. The pIC50 against AKT1 E17K was 6.30 to 7.00; on AKT1 WT, 6.30 to 7.00; on AKT2 it was under 6.30.
Consider `Nc1ncccc1-c1nc2ccc(C3CC3)nc2n1-c1ccc(CNC(=O)Cc2ccc(C=O)c(O)c2Cl)cc1` [Example 22, N-({4-[2-(2-aminopyridin-3-yl)-5-cyclopropylimidazo[4,5-b]pyridin-3-yl]phenyl}methyl)-2-(2-chloro-4-formyl-3-hydroxyphenyl)acetamide], for which the “AKT1 E17K IC50: Selectivity vs AKT1 WT” value on AKT1 E17K came to 3.1. In addition, at AKT1 E17K, the “AKT1 E17K IC50: Selectivity vs AKT2” value is 190. Besides, the results for the pIC50 against AKT1 E17K, against AKT1 WT and at AKT2 were over 7.00, over 7.00 and under 6.30, respectively.
With `Nc1ncccc1-c1nc2ccc(-c3ccccc3)nc2n1-c1ccc(C(=O)NCC#Cc2ccc(C=O)c(O)c2)cc1` [Compound 104, 4-(2-(2-aminopyridin-3-yl)-5-phenyl-3H-imidazo[4,5-b]pyridin-3-yl)-N-(3-(4-formyl-3-hydroxyphenyl)prop-2-yn-1-yl)benzamide], at AKT1 E17K, the “AKT1 E17K IC50: Selectivity vs AKT1 WT” value came to 0.72, the “AKT1 E17K IC50: Selectivity vs AKT2” value amounted to 1 and the pIC50 is under 6.30. In addition, the pIC50 on AKT1 WT is under 6.30. The same compound showed a pIC50 against AKT2 of under 6.30.
On to `Nc1ncccc1-c1nc2ccc(-c3cccnc3)nc2n1-c1ccc(CNC(=O)Cc2ccc(C=O)c(O)c2F)cc1` [Compound 79, N-({4-[2-(2-aminopyridin-3-yl)-5-(pyridin-3-yl)imidazo[4,5-b]pyridin-3-yl]phenyl}methyl)-2-(2-fluoro-4-formyl-3-hydroxyphenyl)acetamide], for which, on AKT1 E17K, the “AKT1 E17K IC50: Selectivity vs AKT1 WT” value came out at 4.4, the “AKT1 E17K IC50: Selectivity vs AKT2” value is reported as 88 and the pIC50 is over 7.00. The pIC50 at AKT1 WT is over 7.00. Also, on AKT2, the negative-log IC50 (pIC50) was under 6.30.
Consider `Nc1ncccc1-c1nc2ccc(C3CC3)nc2n1-c1ccc(CNC(=O)C(F)c2ccc(C=O)c(O)c2)cc1` (centres unmarked) [Compound 26, N-({4-[2-(2-aminopyridin-3-yl)-5-cyclopropylimidazo[4,5-b]pyridin-3-yl]phenyl}methyl)-2-fluoro-2-(4-formyl-3-hydroxyphenyl)acetamide], for which, on AKT1 E17K, the “AKT1 E17K IC50: Selectivity vs AKT1 WT” value is 2.4, the “AKT1 E17K IC50: Selectivity vs AKT2” value is recorded as 190 and the pIC50 was over 7.00. This compound also showed a pIC50 against AKT1 WT of over 7.00. Besides, the pIC50 at AKT2 was under 6.30.
On to `Nc1ncccc1-c1nc2ccc(C3CC3)nc2n1-c1ccc(CNCCc2ccc(C=O)c(O)c2)cc1` [Example 16, 4-{2-[({4-[2-(2-aminopyridin-3-yl)-5-cyclopropylimidazo[4,5-b]pyridin-3-yl]phenyl}methyl)amino]ethyl}-2-hydroxybenzaldehyde], for which, on AKT1 E17K, the “AKT1 E17K IC50: Selectivity vs AKT1 WT” value is reported as 2.4, the “AKT1 E17K IC50: Selectivity vs AKT2” value came to 41 and the pIC50 is over 7.00. This compound gave a pIC50 against AKT1 WT of 6.30 to 7.00. The same compound gave a pIC50 against AKT2 of under 6.30.
For `Nc1ncccc1-c1nc2ccc(-c3ccccc3)nc2n1-c1ccc(CNCCc2cc(O)c(C=O)c(F)c2)cc1` [Compound 123, 4-(2-((4-(2-(2-aminopyridin-3-yl)-5-phenyl-3H-imidazo[4,5-b]pyridin-3-yl)benzyl)amino)ethyl)-2-fluoro-6-hydroxybenzaldehyde], in that order: 1, 2.2, over 7.00, over 7.00 and 6.30 to 7.00.
Consider `COc1ccc2nc(-c3cccnc3N)n(-c3ccc(CNC(=O)Cc4ccc(C=O)c(O)c4)cc3)c2n1` [Compound 33, N-(4-(2-(2-aminopyridin-3-yl)-5-methoxy-3H-imidazo[4,5-b]pyridin-3-yl)benzyl)-2-(4-formyl-3-hydroxyphenyl)acetamide], for which, at AKT1 E17K, the “AKT1 E17K IC50: Selectivity vs AKT1 WT” value is given as 23, the “AKT1 E17K IC50: Selectivity vs AKT2” value came out at 400 and the negative logarithm of the IC50 (pIC50) was over 7.00. Besides, the pIC50 at AKT1 WT is 6.30 to 7.00. Besides, the pIC50 on AKT2 was under 6.30.
For `Nc1ncccc1-c1nc2ccc(-c3ccccc3F)nc2n1-c1ccc(CNC(=O)Cc2ccc(C=O)c(O)c2)cc1` [Compound 54, N-({4-[2-(2-aminopyridin-3-yl)-5-(2-fluorophenyl)imidazo[4,5-b]pyridin-3-yl]phenyl}methyl)-2-(4-formyl-3-hydroxyphenyl)acetamide], in that order: 1.8, 64, over 7.00, over 7.00 and 6.30 to 7.00.
The corresponding values for `Nc1ncccc1-c1nc2ccc(-c3ccc(N4CCOCC4)cc3)nc2n1-c1ccc(CNC(=O)Cc2ccc(C=O)c(O)c2)cc1` [Example 1, N-(4-(2-(2-aminopyridin-3-yl)-5-(4-morpholinophenyl)-3H-imidazo[4,5-b]pyridin-3-yl)benzyl)-2-(4-formyl-3-hydroxyphenyl)acetamide] are 6.1, 85, over 7.00, over 7.00 and under 6.30.
The corresponding values for `Nc1ncccc1-c1nc2ccc(-c3ccccc3)nc2n1-c1ccc(CNC(=O)Cc2ccc(C=O)c(O)c2C(F)(F)F)cc1` [Example 5, N-(4-(2-(2-aminopyridin-3-yl)-5-phenyl-3H-imidazo[4,5-b]pyridin-3-yl)benzyl)-2-(4-formyl-3-hydroxy-2-(trifluoromethyl)phenyl)acetamide] are 2.9, 32, over 7.00, over 7.00 and under 6.30.
For `C[C@H](NCCc1ccc(O)c(C=O)c1)c1ccc(-n2c(-c3cccnc3N)nc3ccc(-c4ccccc4)nc32)cc1` [Compound 92, 5-(2-{[(1S)-1-{4-[2-(2-aminopyridin-3-yl)-5-phenylimidazo[4,5-b]pyridin-3-yl]phenyl}ethyl]amino}ethyl)-2-hydroxybenzaldehyde], the “AKT1 E17K IC50: Selectivity vs AKT1 WT” value on AKT1 E17K is recorded as 0.26. For the same compound, the “AKT1 E17K IC50: Selectivity vs AKT2” value at AKT1 E17K was found to be 0.75. For the same compound, the pIC50 on AKT1 E17K, at AKT1 WT and on AKT2 was 6.30 to 7.00 in each case.
